Experimental data taken from ChEMBL document CHEMBL3785001, “New pentasubstituted pyrrole hybrid atorvastatin-quinoline derivatives with antiplasmodial activity” (Bioorg Med Chem Lett, 2016).

Assays:
Plasmodium falciparum [1] = assay: Antimalarial activity against chloroquine-sensitive Plasmodium falciparum NF54 infected in human erythrocytes incubated for 48 hrs by [3H]hypoxanthine incorporation assay; format: functional, organism-based
[2] = Cytotoxicity against African green monkey BGM cells assessed as cell viability after 24 hrs by neutral red assay; format: cell-based; settings: chlorocebus aethiops, read-out: MLD50
Plasmodium falciparum [3] = assay: microbe, parasite or virus in culture; settings: W2, 48 h
in vitro = settings: monkey
Plasmodium falciparum [4] = assay: Potency index, ratio of primaquine IC50 to compound IC50 for chloroquine-resistant Plasmodium falciparum W2 infected in human red blood cells; format: functional

SMILES: C[C@@H]1CC[C@H]2[C@@H](C)C(c3cccn3C)O[C@@H]3O[C@@]4(C)CC[C@@H]1[C@]32OO4 (some centres undefined)
- IC50 (Plasmodium falciparum [1]): 0.0046 µM

SMILES: CCCCn1c(-c2ccc(F)cc2)c(-c2ccccc2)c(C(=O)Nc2ccccc2)c1C(C)C
- CC50 at 24 h [2]: > 2200 µM
- IC50 (Plasmodium falciparum [3]): 6.39 µM
- selectivity ratio (in vitro): > 345

SMILES: CC(C)c1c(C(=O)Nc2ccccc2)c(-c2ccccc2)c(-c2ccc(F)cc2)n1CCCNc1ccnc2cc(Cl)ccc12
- CC50 at 24 h [2]: 136 µM
- IC50 (Plasmodium falciparum [3]): 0.65 µM
- selectivity ratio (in vitro): 210
- Ratio IC50 (Plasmodium falciparum [4]): 5

SMILES: CC(C)c1c(C(=O)Nc2ccccc2)c(-c2ccccc2)c(-c2ccc(F)cc2)n1CCNc1ccnc2cc(Cl)ccc12
- CC50 at 24 h [2]: > 1660 µM
- IC50 (Plasmodium falciparum [3]): 0.99 µM
- selectivity ratio (in vitro): > 1680
- Ratio IC50 (Plasmodium falciparum [4]): 5

SMILES: COc1cc(NC(C)CCCn2c(-c3ccc(F)cc3)c(-c3ccccc3)c(C(=O)Nc3ccccc3)c2C(C)C)c2ncccc2c1 (centres undefined)
- CC50 at 24 h [2]: > 1560 µM
- IC50 (Plasmodium falciparum [3]): 1.41 µM
- selectivity ratio (in vitro): > 1110
- Ratio IC50 (Plasmodium falciparum [4]): 5

SMILES: CC(C)c1c(C(=O)Nc2ccccc2)c(-c2ccccc2)c(-c2ccc(F)cc2)n1CCCCNc1ccnc2cc(Cl)ccc12
- CC50 at 24 h [2]: 187 µM
- IC50 (Plasmodium falciparum [3]): 0.4 µM
- selectivity ratio (in vitro): 468
- Ratio IC50 (Plasmodium falciparum [4]): 5

SMILES: CC(C)c1c(C(=O)Nc2ccccc2)c(-c2ccccc2)c(-c2ccc(F)cc2)n1CC[C@@H](O)C[C@@H](O)CC(=O)O [ATORVASTATIN]
- IC50 (Plasmodium falciparum [3]): 10.3 µM

SMILES: COc1cc(NC(C)CCCN)c2ncccc2c1 (centres undefined) [PRIMAQUINE]
- CC50 at 24 h [2]: 452 µM
- IC50 (Plasmodium falciparum [3]): 1.89 µM
- selectivity ratio (in vitro): 239
